Results as given in patent US20150099754A1, “TREATMENT OF CANCER CHARACTERIZED BY GENE MUTATIONS” (SIGNAL PHARMACEUTICALS, LLC, priority 2013, published 2015).
Several values for one entry are separate records, joined by “and”; a condition that tells them apart may be missing. Equal values may be shown once.

Experiments:
[1] = system: Advanced Solid Tumors, Non-Hodgkin Lymphoma or Multiple Myeloma; experiment: Clinical Study A: Phase 1/2 dose finding study of Compound 1 administered orally (tumor response, RECIST 1.1); format: in vivo, human; parameters: key to RECIST* (best target lesion response): PR = partial response; SD = stable disease; PD = progressive disease; NE = nonevaluable; ND = not done
[2] = system: Advanced Solid Tumors, Non-Hodgkin Lymphoma, or Multiple Myeloma; experiment: Clinical Study B: Phase 1/2 dose finding study of the mTOR kinase inhibitor Compound 1 administered orally (best RECIST overall response, variants, Tables 2 and 3); format: in vivo, human; parameters: key: PR=partial response; SD=stable disease; PD=progressive disease; NE=non-evaluable; ND=not done; *: Confirmed reponse; conditions: one line per patient
Description: A Phase 1/2, Multi-Center, Open-Label, Dose Finding Study to Assess the Safety. Tolerability, Pharmacokinetics and Preliminary Efficacy of the mTOR Kinase Inhibitor Compound 1 Administered Orally to Subjects with Advanced Solid Tumors, Non-Hodgkin Lymphoma, or Multiple Myeloma.
Compound 1 is administered orally to subjects with advanced solid tumors, non-Hodgkin lymphoma (NHL), or multiple myeloma (MM). The study is designed as a Phase 1/2 trial consisting of two parts: dose escalation (Part A) and dose expansion (Part B).
The primary objectives of the study are (a) to determine the safety and tolerability of Compound 1 when administered orally and to define the non-tolerated dose (NTD) and the maximum tolerated dose (MTD) and (b) to determine the preliminary pharmacokinetics (PK) of Compound 1 following both single and multiple oral dosing of Compound 1.
The secondary objectives of the study are: (a) to evaluate the extent of inhibition of phosphorylation of S6RP (Ser235/236 and/or Ser240/244) and/or 4EB-P1 (Thr37/46) for mTORC1 activity and AKT (Ser473) and/or other relevant biomarkers for mTORC2 activity in peripheral blood samples and tumor biopsies following treatment with Compound 1; (b) to provide information on the preliminary efficacy of Compound 1; and (c) to characterize PK of the metabolite of Compound 1 following oral dosing of Compound 1.
In Part A, subjects will receive single and multiple ascending doses of Compound 1 to measure pharmacokinetics (PK) and identify the maximum tolerated dose (MTD). A modified accelerated titration design (Simon et al, J Nat Cancer Inst (1997) Vol. 89, No. 15) will be used to identify initial toxicity. During the accelerated course, initial cohorts of one subject will be given Compound 1 in dose increments of 100% until the first instance of first-course grade 2 or higher toxicity suspected to be drug-related, at which point the accelerated phase will stop, and that particular cohort will be expanded to a total of 6 subjects. Subsequently, a standard escalation schedule, with approximately 50% dose increments and 6-subject cohorts, will be initiated in order to establish the non-tolerated dose (NTD) and MTD. Smaller increments and additional subjects within a dose cohort may also be evaluated. A dose will be considered the NTD when 2 evaluable subjects in a cohort experience drug-related DLT. When the NTD is established, dose escalation will stop. The MTD is defined as the last dose level below the NTD with 0 or 1 out of 6 evaluable subjects experiencing DLT during Cycle 1. An intermediate dose (ie, one between the NTD and the last dose level before the NTD) or additional subjects within any dose cohort may be required to more precisely determine the MTD.
In Part B, subjects may start Compound 1 at the MTD and/or a lower dose level based on safety, PK and PD data from Part A. Approximately 200 subjects will be treated and evaluated for safety and preliminary antitumor activity after every two cycles of therapy. Selected tumor types include non-small cell lung cancer (NSCLC), glioblastoma multiforme (GBM), hepatocellular carcinoma (HCC), gastrointestinal neuroendocrine tumor (NET) of non-pancreatic origin, hormone receptor positive breast cancer (HRPBC), diffuse large B-cell lymphoma (DLBCL), and multiple myeloma (MM). Up to 40 evaluable subjects will be enrolled for each tumor type.
Men and women, 18 years or older, with advanced NHL, MM, or advanced unresectable solid tumors, including subjects who have progressed on (or not been able to tolerate) standard therapy or for whom no standard anticancer therapy exists.
During the first cycle only in Part A, each subject will be administered a single dose of Compound 1 (Day −1), followed by a 48-hour observation and PK sampling period, followed on Day 1 by daily uninterrupted dosing for 28 days (Cycle 1=30 days). In subsequent Part A cycles, subjects are treated in 28-day cycles with continuous dosing from Day 1 to 28. […]

[3] = system: hematological cancer cell lines; experiment: Growth inhibitory effect of Compound 1 (Cell Titer-Glo, 72 hours, GI50) correlated with biomarkers; format: cell-based
Description: Cell Lines and Culture Conditions.
40 hematological cancer cell lines (Table 5) used in the study were purchased commercially. A lung cancer cell line A549 was used as a control cell line. A549 was purchased from National Cancer Institute (NCI) and cultured in RPMI+10% fetal bovine serum (FBS).
Cell pellets were made for 37 cell lines without any compound treatment and a reverse phase protein array (RPPA) was performed as described in Tibes R, et al. Mol Cancer Ther 2006; 5:2512-2521. The RPPA analysis of the 37 hematological cell lines was performed with 262 antibodies. The relative level of each protein in each sample was determined and normalized for protein loading. Protein levels were then transformed to log 2 values and median centered by individual batch.
Cells were lysed in RNeasy kit tissue lysis (RLT) buffer (Qiagen; Valencia, Calif.) and total RNA was isolated using RNeasy. Double-stranded cDNA and biotin-labeled cRNA were synthesized using 100 ng of total RNA using Ambion's MessageAmp Premier RNA Amplification Kit. […]
The seeding density for each cell line was optimized to ensure assay linearity in 384-well plates. […] When ready for testing, plates were removed from the freezer, thawed, and unsealed just prior to the addition of the test cells.
Prior to testing, cells were grown and expanded in culture flasks to provide sufficient amounts of starting material. […] At the time when exposure of cells to compound began (t0), initial cell number was assessed via a viability assay (Cell Titer-Glo) by quantifying the level of luminescence generated by adenosine-5′-triphosphate (ATP) present in viable cells. After 72 hours, cell viability of compound-treated cells was assessed via Cell Titer-Glo and read for luminescence.
Cell lines were assayed for growth inhibition by Compound 1 in at least 3 independent tests. […] The response of the control cell line to the compound was monitored closely to enable comparison of the data generated through the assay period. […] In addition, the IC50 value of Compound 1 for each cell line was calculated.

A549 = experiment: Repeat testing of pre-spotted Compound 1 plates against the control cell line (A549); format: cell-based; conditions: sealed 384-well plates stored at −20° C. for up to 1 month
Description: The seeding density for each cell line was optimized to ensure assay linearity in 384-well plates. Increasing concentrations of Compound 1 (0.5 nM to 10 μM) were spotted in a 10-point serial dilution fashion (3-fold dilution) in duplicate within the plate via an acoustic dispenser (EDCATS-100) into an empty 384-well plate. The dimethyl sulfoxide (DMSO) concentration was kept constant for a final assay concentration of 0.1% DMSO. Plates were replicated for use against different cell lines and testing periods. After compound plate replication, all plates were sealed (Agilent ThermoLoc) and stored at −20° C. for up to 1 month. […] When ready for testing, plates were removed from the freezer, thawed, and unsealed just prior to the addition of the test cells.

`CO[C@H]1CC[C@H](N2C(=O)CNc3ncc(-c4ccc(C(C)(C)O)nc4)nc32)CC1` [Compound 1, 7-(6-(2-hydroxypropan-2-yl)pyridin-3-yl)-1-((trans)-4-methoxycyclohexyl)-3,4-dihydropyrazino[2,3-b]pyrazin-2(1H)-one] was tested, and the “RECIST* (best target lesion response)” value ([1]; ER+ patients, genes with mutations of interest) was “SD (8×) and PD (3×) and PR (2×)”, the “showing RECIST PR” value ([1]; patients treated with Compound 1, FIG. 1, data as of September 2014) was 2/17 and the “target lesions showing PR” value ([1]; patients treated with Compound 1, FIG. 1, data as of September 2014, all with PIK3CA mutations) was 3/17. For the same molecule, the Best overall response ([2]; patients with HCC exp. (expansion)) was “SD (2×) and NE”, the Best overall response ([2]; patients with MM) was “PD (8×) and NE and SD (4×)” and the Best overall response ([2]; patients with NET exp. (expansion)) was “SD (17×) and PD (2×) and NE and PR”. For the same molecule, the Best overall response ([2]; patients with NET) was “SD (18×) and NE (4×) and PR”, the Best overall response ([2]; patients with NSCL+) was “PR and PD” and the Best overall response ([2]; patients with NSCLC) was “NE (6×) and SD (11×) and PD (2×)”. For the same molecule, the “IRF4 protein levels versus sensitivity to growth inhibition” value ([3]; 37 hematological cancer cell lines, RPPA, FIG. 5) was “negatively correlated”, the “IRF4 gene expression level (Probe Set 216986_s_at) versus sensitivity to growth inhibition” value ([3]; 40 hematological cancer cell lines, FIG. 4) was “negatively correlated” and the “sensitivity versus activation of mTORC1 and mTORC2 (biomarker RPPA)” value ([3]; subgroup of DLBCL lines, FIG. 6) was “correlated”. The “stability in pre-spotted plates” value (A549) was “stable”.
